Legend:
[1] = Sterilization by dry heat, appearance of the material; type: physicochemical; details: 180° C. for 2 hours
Procedure: Sorbitan monostearate (Sanyo, Japan) was subjected to sterilization by dry heat at a temperature of 180° C. for 2 hours. […] The material thus obtained though it would pass the test for sterility renders the final product unacceptable for pharmiaceutical use because of the dark brown color it imparts.

[2] = Sterilization by gamma irradiation, appearance / degradation of the gelling agent; type: physicochemical; details: 25 KGy, 60Cobalt source
From the text: In an additional embodiment of the invention, the sterile dried bulk gelling agent is subjected to sterilization by gamma irradiation. […] Other materials in the gelled polymeric dispersion can be processed by other techniques as described above and generally known in the art of preparation of sterile dosage forms.
Sorbitan monostearate prepared in Example 1 was exposed to gamma irradiation at a dose of 25 KGy using a ^60Cobalt source at a contract irradiation laboratory. A dose of 25 KGy is accepted internationally to be sufficient to ensure sterility (British Pharmacopoeia).

appearance after sterilization by dry heat [1] | change in appearance after gamma irradiation [2] | Substance
dark brown colored mass | – | Sorbitan monostearate [listing 1 of 2 here]
– | no change in appearance | Sorbitan monostearate [listing 2 of 2 here]
